What was measured:
TF-FVIIa [1] = target: T1, TF-FVIIa (Homo sapiens, UniProt P08709); conditions: literature, cited from earlier work; for maximal inhibition of FX activation: saturating concentrations of peptide
Target sequence in this assay (P13726 33-275 partner limits assumed, one chain of several): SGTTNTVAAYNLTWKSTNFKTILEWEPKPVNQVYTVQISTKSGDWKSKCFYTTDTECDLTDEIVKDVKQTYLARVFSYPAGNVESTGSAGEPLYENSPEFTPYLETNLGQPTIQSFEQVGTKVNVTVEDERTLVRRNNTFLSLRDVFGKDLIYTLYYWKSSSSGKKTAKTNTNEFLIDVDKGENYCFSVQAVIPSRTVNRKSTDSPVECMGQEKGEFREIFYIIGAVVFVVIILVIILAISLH

TF-FVIIa [2] = target: T1, TF-FVIIa; conditions: literature, cited from earlier work; for maximal extent of inhibition of the amidolytic activity: saturating concentrations of peptide
Target sequence in this assay (P13726 33-251 partner limits assumed, one chain of several): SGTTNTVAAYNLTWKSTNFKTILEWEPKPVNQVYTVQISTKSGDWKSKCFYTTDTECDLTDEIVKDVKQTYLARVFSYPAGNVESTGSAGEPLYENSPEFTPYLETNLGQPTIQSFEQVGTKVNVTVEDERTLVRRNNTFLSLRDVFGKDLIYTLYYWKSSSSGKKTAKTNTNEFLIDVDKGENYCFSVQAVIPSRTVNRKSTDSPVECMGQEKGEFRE

[3] = test system: citrated pooled normal human plasma; assay: Prothrombin time (PT) clotting assay initiated by TF and Ca2+; format: biochemical; conditions: Innovin
Method: The prothrombin time (PT) assay was performed in citrated pooled normal human plasma as described previously (Dennis, M. S., et al., (2000) Nature, 404: 465–470). Clotting times were determined using an ACL 300 Coagulation Analyzer (Coulter Corp., Miami, Fla.) using Innovin (human relipidated TF and Ca2+) from Dade International Inc. to initiate the assay.

FVIIa = target: T2, FVIIa (Homo sapiens, UniProt P08709); conditions: pH 7.2; read-out: binding constant Kd to FVIIa; cited from earlier work
T2 sequence (P08709 213-466 limits assumed): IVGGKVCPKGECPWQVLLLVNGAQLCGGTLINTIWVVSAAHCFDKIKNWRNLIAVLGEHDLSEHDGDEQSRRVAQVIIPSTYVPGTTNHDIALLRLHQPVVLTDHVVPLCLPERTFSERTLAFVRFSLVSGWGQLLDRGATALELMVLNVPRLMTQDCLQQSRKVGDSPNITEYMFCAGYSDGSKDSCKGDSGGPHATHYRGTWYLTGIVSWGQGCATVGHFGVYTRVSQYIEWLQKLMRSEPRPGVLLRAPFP
T2 sequence (P08709 61-212 limits assumed): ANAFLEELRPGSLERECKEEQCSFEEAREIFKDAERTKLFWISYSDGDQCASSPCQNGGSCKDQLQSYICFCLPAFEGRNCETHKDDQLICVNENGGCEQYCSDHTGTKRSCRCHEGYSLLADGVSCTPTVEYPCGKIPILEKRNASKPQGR

TF-FVIIa [4] = target: T1, TF-FVIIa; assay: Inhibition of TF-FVIIa catalyzed activation of FX; format: biochemical; conditions: saturating peptide
Target sequence in this assay (P13726 33-275 partner limits assumed, one chain of several): as the sequence (P13726 33-275 partner limits assumed, one chain of several) above
Method: Inhibition of FX activation by TF-VIIa was determined with 300 pM relipidated TF1-243, 20 pM FVIIa , and 165 nM FX at 25° C. as a function of peptide concentration essentially as described (Dennis, M. S., et al., (2000) Nature, 404: 465–470; Kelley, R. F., et al., (1997) Blood, 89: 3219–3227). TF was incorporated into phospholipid vesicles and quantified as previously described (Kelley, R. F., et al., (1997) Blood, 89: 3219–3227). The linear rates of FXa generation can be expressed as mOD405/min/min or as fractional activities (vi/v0).

For EEWEVACWTWETCER [Peptide E-76], the “IC50 for inhibition of activation of FX to FXa by TF-FVIIa” value (TF-FVIIa [1]) is listed as “nanomolar range”, the “maximal inhibition of FX activation” value (TF-FVIIa [1]) is listed as 90% and the “maximal extent of inhibition of the amidolytic activity” value (TF-FVIIa [2]) is listed as 50%.

For EEWEVLCWTWETCER [Peptide A-183], the “fold prolongation of the clotting time” value [3] is given as 1.6 fold, the “IC50 for inhibition of activation of FX to FXa by TF-FVIIa” value (TF-FVIIa [1]) is given as “nanomolar range” and the “maximal inhibition of FX activation” value (TF-FVIIa [1]) is given as 78%. The Kd (FVIIa) was 2.8 nM, the “inhibition of amidolytic activity (in words)” value (TF-FVIIa [2]) was “potent but incomplete inhibition” and the “maximal extent of inhibition of the amidolytic activity” value (TF-FVIIa [2]) was 32%.

With Z-GGSGGDDDDK-EEWEVLCWTWETCER [Z-A-183] the “extent of inhibition of FX activation upon saturation” value (TF-FVIIa [4]) was 80%.

Reference: patent US7164002B2, “FVIIa antagonists” (Genentech, Inc., priority 2002, dated 2007)
